Reference: patent publication US20260062412A1, “NITROGEN-CONTAINING HETEROCYCLIC COMPOUND HAVING MYT1 INHIBITORY ACTIVITY” (CHUGAI SEIYAKU KABUSHIKI KAISHA, priority 2023, published 2026)

The molecules below were run against MYT1 protein (Homo sapiens (Human), UniProt Q99640) (assay: Test for binding to ATP binding site of MYT1 (Kinase Tracer 178 / Eu-Anti-GST antibody TR-FRET)). Conditions: ATP binding site of MYT1, 30 minutes at room temperature.
Chain of MYT1 protein (Q99640 whole entry): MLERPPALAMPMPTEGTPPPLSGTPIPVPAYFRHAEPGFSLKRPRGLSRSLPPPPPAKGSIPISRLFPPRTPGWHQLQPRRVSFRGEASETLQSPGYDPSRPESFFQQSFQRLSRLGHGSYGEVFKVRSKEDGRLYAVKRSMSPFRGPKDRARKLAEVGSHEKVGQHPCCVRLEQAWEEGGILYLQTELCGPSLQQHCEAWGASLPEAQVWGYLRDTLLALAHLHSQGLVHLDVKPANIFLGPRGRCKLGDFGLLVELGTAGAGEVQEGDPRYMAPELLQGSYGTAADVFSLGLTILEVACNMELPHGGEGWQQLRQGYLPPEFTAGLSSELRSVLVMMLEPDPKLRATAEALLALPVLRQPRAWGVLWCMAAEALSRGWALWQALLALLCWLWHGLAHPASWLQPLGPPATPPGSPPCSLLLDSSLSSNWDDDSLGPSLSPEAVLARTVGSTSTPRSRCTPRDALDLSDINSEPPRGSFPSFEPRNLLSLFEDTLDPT
`Nc1c(-c2cc(F)c(F)c3[nH]ncc23)c2cc(Br)c3ncc(F)cc3c2[nH]c1=O` [Compound F4, 3-Amino-6-bromo-4-(6,7-difluoro-1H-indazol-4-yl)-9-fluoro-1H-1,7-phenanthrolin-2-one] gave an IC50 of 22 nM.
`CN1CC(c2cc3c(-c4ccc(F)c5[nH]ncc45)c(N)c(=O)[nH]c3c3ncccc23)C1` [Compound D30, 3-Amino-4-(7-fluoro-1H-indazol-4-yl)-6-(1-methylazetidin-3-yl)-1H-1,10-phenanthrolin-2-one] showed an IC50 of 2.9 nM.
Work on `Nc1c(-c2ccc(F)c3[nH]ncc23)c2cc(N3C4COCC3C4)c3ncccc3c2[nH]c1=O` [Compound C129, 3-Amino-4-(7-fluoro-1H-indazol-4-yl)-6-(3-oxa-6-azabicyclo[3.1.1]heptan-6-yl)-1H-1,7-one] yielded an IC50 of 3.3 nM.
In the case of `Cc1ccc2c(ccc3c(-c4ccc(F)c5[nH]ncc45)c(N)c(=O)[nH]c32)n1` [Compound C183, 3-Amino-4-(7-fluoro-1H-indazol-4-yl)-8-methyl-1H-1,7-phenanthrolin-2-one], the IC50 is reported as 110 nM.
Molecule `Cc1cc2c(-c3ccc(F)c4[nH]ncc34)c(N)c(=O)[nH]c2c2c1cnn2C` [Compound I2, 7-Amino-6-(7-fluoro-1H-indazol-4-yl)-1,4-dimethyl-9H-pyrazolo[4,3-h]quinolin-8-one] has an IC50 of 16 nM.
`Cc1cc2ncccc2c2[nH]c(=O)c(N)c(-c3cc(F)c(F)c4[nH]ncc34)c12` [Compound C218, 3-Amino-4-(6,7-difluoro-1H-indazol-4-yl)-5-methyl-1H-1,7-phenanthrolin-2-one] gave an IC50 of 0.43 nM.
Work on `Nc1c(-c2ccc(Cl)c3[nH]ncc23)c2cc(OCCC(F)F)c(F)cc2[nH]c1=O` [Compound A2, 3-Amino-4-(7-chloro-1H-indazol-4-yl)-6-(3,3-difluoropropoxy)-7-fluoro-1H-quinolin-2-one] yielded an IC50 of 9.3 nM.
For `Nc1c(-c2cc(F)c(F)c3[nH]ncc23)c2c(F)c(C3CC3)c3ncccc3c2[nH]c1=O` [Compound C220, 3-Amino-6-cyclopropyl-4-(6,7-difluoro-1H-indazol-4-yl)-5-fluoro-1H-1,7-phenanthrolin-2-one], the IC50 was 4.1 nM.
Molecule `CCc1cc2[nH]c(=O)c(N)c(-c3ccc(Cl)c4[nH]ncc34)c2cc1Cl` [Compound A28, 3-Amino-6-chloro-4-(7-chloro-1H-indazol-4-yl)-7-ethyl-1H-quinolin-2-one] has an IC50 of 47 nM.
In the case of `N#C[C@H]1C[C@H](Oc2cc3c(-c4cc(F)c(F)c5[nH]ncc45)c(N)c(=O)[nH]c3c3cccnc23)C1` [Compound C211, (1r,3r)-3-[[3-Amino-4-(6,7-difluoro-1H-indazol-4-yl)-2-oxo-1H-1,7-phenanthrolin-6-yl]oxy]cyclobutane-1-carbonitrile], the IC50 is reported as 0.87 nM.
`Nc1c(-c2ccc(F)c3[nH]ncc23)c2cc(OC(F)F)c3ncccc3c2[nH]c1=O` [Compound C21, 3-Amino-6-(difluoromethoxy)-4-(7-fluoro-1H-indazol-4-yl)-1H-1,7-phenanthrolin-2-one] was tested, and the IC50 was 2.8 nM.
With `Nc1c(-c2ccc(F)c3[nH]ncc23)c2cc(Br)c3cnsc3c2[nH]c1=O` [Compound H1, 7-Amino-4-bromo-6-(7-fluoro-1H-indazol-4-yl)-9H-[1,2]thiazolo[4,5-h]quinolin-8-one] the IC50 was 6.2 nM.
Molecule `Nc1c(-c2ccc(Cl)c3[nH]ncc23)c2cc(C3CCCC3)c3ncccc3c2[nH]c1=O` [Compound C151, 3-Amino-4-(7-chloro-1H-indazol-4-yl)-6-cyclopentyl-1H-1,7-phenanthrolin-2-one] has an IC50 of 10 nM.
In the case of `Nc1c(-c2ccc(F)c3[nH]ncc23)c2cc(I)c3ncccc3c2[nH]c1=O` [Compound C111, 3-Amino-4-(7-fluoro-1H-indazol-4-yl)-6-iodo-1H-1,7-phenanthrolin-2-one], the IC50 is reported as 4.9 nM.
Molecule `Nc1c(-c2ccc(F)c3[nH]ncc23)c2cc(C3CC3(F)F)c3ncccc3c2[nH]c1=O` (centres unmarked) [Compound C145, 3-Amino-6-(2,2-difluorocyclopropyl)-4-(7-fluoro-1H-indazol-4-yl)-1H-1,7-phenanthrolin-2-one] has an IC50 of 3.1 nM.
In the case of `Nc1c(-c2ccc(F)c3[nH]ncc23)c2cc(CCC(F)F)c3ncccc3c2[nH]c1=O` [Compound C171, 3-Amino-6-(3,3-difluoropropyl)-4-(7-fluoro-1H-indazol-4-yl)-1H-1,7-phenanthrolin-2-one], the IC50 is reported as 2.2 nM.
`Nc1c(-c2ccc(F)c3[nH]ncc23)c2cc(OC3CC(F)(F)C3)c3ncccc3c2[nH]c1=O` [Compound C23, 3-Amino-6-(3,3-difluorocyclobutyl)oxy-4-(7-fluoro-1H-indazol-4-yl)-1H-1,7-phenanthrolin-2-one] gave an IC50 of 5 nM.
`Nc1c(-c2ccc(F)c3[nH]ncc23)c2cc(Br)c3ncc(F)cc3c2[nH]c1=O` [Compound F1, 3-Amino-6-bromo-9-fluoro-4-(7-fluoro-1H-indazol-4-yl)-1H-1,7-phenanthrolin-2-one] was tested, and the IC50 was 12 nM.
`CN1CCC(c2cc3c(-c4ccc(F)c5[nH]ncc45)c(N)c(=O)[nH]c3c3ncccc23)CC1` [Compound D22, 3-Amino-4-(7-fluoro-1H-indazol-4-yl)-6-(1-methylpiperidin-4-yl)-1H-1,10-phenanthrolin-2-one] gave an IC50 of 2.9 nM.
`Nc1c(-c2ccc(F)c3[nH]ncc23)c2cc(O)c3ncccc3c2[nH]c1=O` [Compound C3, 3-Amino-4-(7-fluoro-1H-indazol-4-yl)-6-hydroxy-1H-1,7-phenanthrolin-2-one] was tested, and the IC50 was 3.6 nM.
`Nc1c(-c2ccc(F)c3[nH]ncc23)c2cc(Br)c3cnccc3c2[nH]c1=O` [Compound P3, 3-Amino-6-bromo-4-(7-fluoro-1H-indazol-4-yl)-1H-1,8-phenanthrolin-2-one] showed an IC50 of 12 nM.
`Nc1c(-c2ccc(F)c3[nH]ncc23)c2cc(C3CC4(CCC4)C3)c3ncccc3c2[nH]c1=O` [Compound C169, 3-Amino-4-(7-fluoro-1H-indazol-4-yl)-6-spiro[3,3]heptan-2-yl-1H-1,7-phenanthrolin-2-one] was tested, and the IC50 was 86 nM.
Work on `Nc1c(-c2ccc(F)c3[nH]ncc23)c2cc(OCC3(F)COC3)c3ncccc3c2[nH]c1=O` [Compound C40, 3-Amino-4-(7-fluoro-1H-indazol-4-yl)-6-[(3-fluorooxetan-3-yl)methoxy]-1H-1,7-phenanthrolin-2-one] yielded an IC50 of 4 nM.
Molecule `CC(C)Cc1cc2c(-c3cc(F)c(F)c4[nH]ncc34)c(N)c(=O)[nH]c2c2cccnc12` [Compound C203, 3-Amino-4-(6,7-difluoro-1H-indazol-4-yl)-6-(2-methylpropyl)-1H-1,7-phenanthrolin-2-one] has an IC50 of 17 nM.
`Nc1c(-c2cc(F)c(F)c3[nH]ncc23)c2ccc3ncccc3c2[nH]c1=O` [Compound C197, 3-Amino-4-(6,7-difluoro-1H-indazol-4-yl)-1H-1,7-phenanthrolin-2-one] showed an IC50 of 20 nM.
`COc1ccc2c(n1)c(OC(C)C)cc1c(-c3ccc(F)c4[nH]ncc34)c(N)c(=O)[nH]c12` [Compound T2, 3-Amino-4-(7-fluoro-1H-indazol-4-yl)-8-methoxy-6-propan-2-yloxy-1H-1,7-phenanthrolin-2-one] was tested, and the IC50 was 7.6 nM.
Work on `Nc1c(-c2ccc(F)c3[nH]ncc23)c2cc(C3CCN(C4COC4)CC3)c3cccnc3c2[nH]c1=O` [Compound D27, 3-Amino-4-(7-fluoro-1H-indazol-4-yl)-6-[1-(oxetan-3-yl)piperidin-4-yl]-1H-1,10-phenanthrolin-2-one] yielded an IC50 of 0.53 nM.
`Nc1c(-c2ccc(F)c3[nH]ncc23)c2cc(NS(=O)(=O)C3CC3)c3ncccc3c2[nH]c1=O` [Compound C130, N-[3-amino-4-(7-fluoro-1H-indazol-4-yl)-2-oxo-1H-1,7-phenanthrolin-6-yl]cyclopropanesulfonamide] was tested, and the IC50 was 3.7 nM.
`Cc1cc2c(-c3ccc(F)c4[nH]ncc34)c(N)c(=O)[nH]c2c2ccc(Cl)cc12` [Compound B15, 3-Amino-8-chloro-4-(7-fluoro-1H-indazol-4-yl)-6-methyl-1H-benzo[h]quinolin-2-one] was tested, and the IC50 was 8.6 nM.
`Nc1c(-c2ccc(F)c3[nH]ncc23)c2cc(O[C@H]3C[C@@H](F)C3)c3ncccc3c2[nH]c1=O` [Compound C28, 3-Amino-4-(7-fluoro-1H-indazol-4-yl)-6-((1s,3s)-3-fluorocyclobutoxy)-1,7-phenanthrolin-2(1H)-one] was tested, and the IC50 was 1.8 nM.
`Nc1c(-c2ccc(F)c3[nH]ncc23)c2cc(N3CCC(F)(F)C3)c3cccnc3c2[nH]c1=O` [Compound D8, 3-Amino-6-(3,3-difluoropyrrolidin-1-yl)-4-(7-fluoro-1H-indazol-4-yl)-1H-1,10-phenanthrolin-2-one] was tested, and the IC50 was 10 nM.
For `CCc1cc2c(-c3ccc(Cl)c4[nH]ncc34)c(N)c(=O)[nH]c2c2ccccc12` [Compound B38, 3-Amino-4-(7-chloro-1H-indazol-4-yl)-6-ethyl-1H-benzo[h]quinolin-2-one], the IC50 was 4.6 nM.
`Nc1c(-c2ccc(F)c3[nH]ncc23)c2cc(C3CCN(C4CCC4)CC3)c3cccnc3c2[nH]c1=O` [Compound D24, 3-Amino-6-(1-cyclobutylpiperidin-4-yl)-4-(7-fluoro-1H-indazol-4-yl)-1H-1,10-phenanthrolin-2-one] gave an IC50 of 6.9 nM.
In the case of `Nc1c(-c2ccc(Cl)c3[nH]ncc23)c2cc(OCC3CC3)c(F)cc2[nH]c1=O` [Compound A3, 3-Amino-4-(7-chloro-1H-indazol-4-yl)-6-(cyclopropylmethoxy)-7-fluoro-1H-quinolin-2-one], the IC50 is reported as 8.5 nM.
`Nc1c(-c2ccc(F)c3[nH]ncc23)c2cc(Br)c3c(Cl)cccc3c2[nH]c1=O` [Compound B16, 3-Amino-6-bromo-7-chloro-4-(7-fluoro-1H-indazol-4-yl)-1H-benzo[h]quinolin-2-one] showed an IC50 of 46 nM.
Molecule `Nc1c(-c2ccc(Cl)c3[nH]ncc23)c2ccc(Cl)cc2[nH]c1=O` [Compound A40, 3-Amino-7-chloro-4-(7-chloro-1H-indazol-4-yl)-1H-quinolin-2-one] has an IC50 of 8.6 nM.
Molecule `Nc1c(-c2ccc(F)c3[nH]ncc23)c2cc(OC3CC(C(F)F)C3)c3ncccc3c2[nH]c1=O` (centres unmarked) [Compound C58, 3-Amino-6-[3-(difluoromethyl)cyclobutyl]oxy-4-(7-fluoro-1H-indazol-4-yl)-1H-1,7-phenanthrolin-2-one] has an IC50 of 1.5 nM.
`Cn1cc(-c2cc3c(-c4ccc(F)c5[nH]ncc45)c(N)c(=O)[nH]c3c3ccccc23)cn1` [Compound B29, 3-Amino-4-(7-fluoro-1H-indazol-4-yl)-6-(1-methylpyrazole-4-yl)-1H-benzo[h]quinolin-2-one] showed an IC50 of 9.2 nM.
